Data: patent US12527849B2, “Apparatus for determining administration form of a composition of an engineered virus-based nanoparticle for a treatment of an autoimmune condition” (Diamante Srl, priority 2021, dated 2026)

Tests used:
CD25+ Foxp3+ cells = assay: Percentage of CD25+ Foxp3+ cells in lymph nodes of CIA mice; assay type: in vivo; conditions: day 60 after immunization, i.p. treatment, mean (SEM), n=3
Excerpt: With continued reference to FIG. 1, in some embodiments, administration 116 may be done to an animal. As a non-limiting example, the animal may include a mouse, a fish, a rabbit, human, and the like. As a non-limiting example, administration 116 of composition of the engineered virus-based nanoparticle for a treatment of an autoimmune condition may be done to dilute, brown, and non-agouti (DBA) mice based on their susceptibility to collagen-induced arthritis (CIA). Female DBA/1 mice 6 to 8 weeks of age may be maintained under specific pathogen-free conditions. CIA may be induced by the intradermal tail base injection of 100 μg of chicken type II collagen (Sigma-Aldrich) as previously described. […] CIA may be assessed using a macroscopic score system based on the visual identification of arthritic limbs. The clinical severity of arthritis may be evaluated as follows: Each mouse may be inspected every 2 to 3 days for three different parameters: (i) swelling of the hind ankle and foot, measured with calipers; (ii) erythema of each leg; and (iii) swelling of the fingers. The RA index for each mouse was expressed as the mean of the three scores from the individual parameters. At the end of the experiment (60 days), we determined the proportion of CD25+Foxp3+ cells in the lymph nodes and measured cytokine titers in the lymph nodes, joints, and serum. […]

IL-17A = assay: Cytokine ELISA in CIA mice, day 60: IL-17A; assay type: in vivo
Excerpt: With continued reference to FIG. 1, in some embodiments, administration 116 may be done to an animal. As a non-limiting example, the animal may include a mouse, a fish, a rabbit, human, and the like. As a non-limiting example, administration 116 of composition of the engineered virus-based nanoparticle for a treatment of an autoimmune condition may be done to dilute, brown, and non-agouti (DBA) mice based on their susceptibility to collagen-induced arthritis (CIA). Female DBA/1 mice 6 to 8 weeks of age may be maintained under specific pathogen-free conditions. CIA may be induced by the intradermal tail base injection of 100 μg of chicken type II collagen (Sigma-Aldrich) as previously described. Five mice per group may be immunized on days 0 and 21 to induce arthritis. The onset of disease may be confirmed on the day that swelling or erythema may be observed in any paw, typically 4 to 10 days after the second immunization. […] CIA may be assessed using a macroscopic score system based on the visual identification of arthritic limbs. The clinical severity of arthritis may be evaluated as follows: Each mouse may be inspected every 2 to 3 days for three different parameters: (i) swelling of the hind ankle and foot, measured with calipers; (ii) erythema of each leg; and (iii) swelling of the fingers. The RA index for each mouse was expressed as the mean of the three scores from the individual parameters. At the end of the experiment (60 days), we determined the proportion of CD25+Foxp3+ cells in the lymph nodes and measured cytokine titers in the lymph nodes, joints, and serum.
With continued reference to FIG. 1, in some embodiments, processor 104 may determine critical administration 124 as a function of a cytokine profile and a proportion of CD25^+ Foxp3^+ cells. […] In some embodiments, to quantify cytokines in DBA mice, joint tissues may be pulverized and resuspended in 1 ml of lysis medium per 100-mg joint weight for 60 min at 37′C, followed by centrifugation to remove debris. […]

`C[C@@H]1C[C@H]2[C@@H]3CCC4=CC(=O)C=C[C@]4(C)[C@@]3(F)[C@@H](O)C[C@]2(C)[C@@]1(O)C(=O)CO` [Dexamethasone, dexamethasone] was tested, and the “% CD25^+/Foxp3^+” value (CD25+ Foxp3+ cells) was 3.26 (0.84) %, the “IL-17A J” value (IL-17A; joint supernatant, CIA mice, day 60, mean n=3) was 1219.43 pg/mL and the “IL-17A LN” value (IL-17A; lymph node supernatant, CIA mice, day 60, mean n=3) was 1540.40 pg/mL. For the same compound, the “IL-17A S” value (IL-17A; serum pooled from five CIA mice, day 60) was 313.8 pg/mL.
